Experimental findings from patent publication US20260365627A1, “NOVEL ECTONUCLEOTIDE PYROPHOSPHATASE / PHOSPHODIESTERASE 1 (ENPP-1) INHIBITORS AND USES THEREOF” (SRAVATHI AI TECHNOLOGY PRIVATE LIMITED, priority 2022, published 2026) are described below.

A value given as a limit tells only on which side of the number the result lay.

The first experiment deals with T1, Human ENPP-1 (Homo sapiens, UniProt P22413).
T1 sequence (P22413 1-925): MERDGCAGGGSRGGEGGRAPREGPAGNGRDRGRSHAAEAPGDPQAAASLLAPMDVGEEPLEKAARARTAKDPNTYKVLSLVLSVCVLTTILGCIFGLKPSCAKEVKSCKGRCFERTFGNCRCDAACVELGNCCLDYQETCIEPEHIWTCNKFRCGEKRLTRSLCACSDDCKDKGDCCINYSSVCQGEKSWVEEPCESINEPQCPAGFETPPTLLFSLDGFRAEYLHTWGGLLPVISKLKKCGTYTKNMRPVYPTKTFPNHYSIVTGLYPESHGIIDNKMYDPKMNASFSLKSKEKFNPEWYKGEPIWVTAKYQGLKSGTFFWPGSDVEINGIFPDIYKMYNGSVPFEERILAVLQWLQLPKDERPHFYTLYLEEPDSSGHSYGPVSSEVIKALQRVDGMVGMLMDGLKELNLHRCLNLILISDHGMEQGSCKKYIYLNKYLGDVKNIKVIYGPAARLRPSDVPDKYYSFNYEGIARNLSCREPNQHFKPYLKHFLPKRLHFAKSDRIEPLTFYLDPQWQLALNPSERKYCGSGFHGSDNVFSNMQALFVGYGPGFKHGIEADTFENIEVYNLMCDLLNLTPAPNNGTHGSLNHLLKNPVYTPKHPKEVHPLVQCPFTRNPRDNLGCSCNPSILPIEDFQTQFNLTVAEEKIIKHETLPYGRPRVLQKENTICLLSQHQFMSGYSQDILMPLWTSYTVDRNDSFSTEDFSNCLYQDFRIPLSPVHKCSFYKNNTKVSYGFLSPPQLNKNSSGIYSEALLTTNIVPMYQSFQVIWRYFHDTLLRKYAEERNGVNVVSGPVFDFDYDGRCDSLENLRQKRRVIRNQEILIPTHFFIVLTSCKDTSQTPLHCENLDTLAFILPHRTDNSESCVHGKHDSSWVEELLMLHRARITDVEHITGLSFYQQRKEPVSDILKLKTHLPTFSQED
As to the kind of experiment: ENPP-1 Inhibition Assay (cGAMP substrate, AMP Glo luminescence). The format is biochemical. The note with it: Human ENPP-1 3 nM, 5 μM cGAMP, pH 7.4, 40 μM HSA, RT 3 hrs; read-out: IC50 values of compounds of the invention, 0.1-1 uM. The procedure:
Assay method: Human ENPP-1 at 3 nM prepared in pH 7.4 was incubated with 5 μM cGAMP substrate with the test samples prepared in buffer with pH 7.4 along with 40 μM HSA. The reaction was incubated at RT for 3 hrs. Post incubation, the reaction was stopped by heating the contents at 95 °C for 10 mins. 10 μl of the solution was added to 384-well plate to which 10 μl of AMP Glo reagent-1 was added and incubated for 60 mins at 25 °C. After the incubation, 20 μl of AMP detection solution was added to each well with the enzyme reaction and incubated for 60 mins at 25 °C. The luminescence signal (RLU) was recorded using SpectraMax I3X plate reader.
The luminescence signal is measured as a function of concentration of the inhibitor. If the inhibitor molecule is active, as the concentration of the inhibitor increases, the luminescence value (referred to as OD) decreases. % Inhibition is then calculated as
% Inhibition=((OD of Control−OD of sample)/OD of Control)×100
In this disclosure, the IC50 value of an inhibitor molecule is measured as the concentration of inhibitor which inhibits growth of 50% of the human ENPP-1. A graph of inhibitor concentration on X-axis vs. percentage inhibition on Y-axis is drawn and the […] is measured as the IC50 value.
Turning to `COc1cc2ncnc(N=S(C)(=O)c3ccc(NC(N)=S)cc3)c2cc1OC` (stereo not drawn) [SAPTI012S007], the IC50 lay in the range of 0.1 to 1 µM.

On to `COc1cc2ncnc(N=S(=O)(c3ccccc3)c3ccc(NC(N)=O)cc3)c2cc1OC` (stereo not drawn) [SAPTI012S034], for which the IC50 is 0.1 to 1 µM.

Take `COc1cc2ncnc(N=S(C)(=O)c3cccc(C(N)=O)c3)c2cc1OC` (stereo not drawn) [SAPTI012S022]: the IC50 fell in the range of 0.1 to 1 µM.

Take `COc1cc2ncnc(N=S(C)(=O)c3cccc(NS(N)(=O)=O)c3)c2cc1OC` (stereo not drawn) [SAPTI012S010]: the IC50 was in the range of 0.1 to 1 µM.

Turning to `COc1cc2ncnc(N=S(=O)(c3cccc(NC(N)=O)c3)C3CC3)c2cc1OC` (stereo not drawn) [SAPTI012S032], the IC50 is 0.1 to 1 µM.

`COc1cc2ncnc(N=S(C)(=O)c3cccc(N(C)C(N)=O)c3)c2cc1OC` (stereo not drawn) [SAPTI012S012]: the IC50 lay in the range of 0.1 to 1 µM.

On to `COc1cc2ncnc(N=S(C)(=O)c3ccc(CCP(=O)(O)O)cc3)c2cc1OC` (stereo not drawn) [SAPTI012S025], for which the IC50 is 0.1 to 1 µM.

Take `COc1cccc2c(N=S(C)(=O)c3ccc(B(O)O)cc3)ncnc12` (stereo not drawn) [SAPTI012S035]: the IC50 lay in the range of 0.1 to 1 µM.

On to `COc1cc2ncnc(N=S(C)(=O)c3ccc(C(=O)O)cc3)c2cc1OC` (stereo not drawn) [SAPTI012S014], for which the half-inhibitory concentration (IC50) was 0.1 to 1 µM.

Still in this experiment, the particulars now being: Human ENPP-1 3 nM, 5 μM cGAMP, pH 7.4, 40 μM HSA, RT 3 hrs; read-out: IC50 values of compounds of the invention, 1-10 uM.
Turning to `COc1cc2ncnc(N=S(C)(=O)c3ccc(F)c(B(O)O)c3)c2cc1OC` (stereo not drawn) [SAPTI012S043], the half-maximal inhibitory concentration (IC50) was in the range of 1 to 10 µM.

For `COc1cccc2ncnc(N=S(C)(=O)c3ccc(B(O)O)cc3)c12` (stereo not drawn) [SAPTI012S039], the IC50 fell in the range of 1 to 10 µM.

As for `COc1cc2ncnc(N=S(C)(=O)c3cccc(P(=O)(O)O)c3)c2cc1OC` (stereo not drawn) [SAPTI012S002], the IC50 fell in the range of 1 to 10 µM.

As for `COc1cc2nccc(N=S(C)(=O)c3ccc(C(N)=O)cc3)c2cc1OC` (stereo not drawn) [SAPTI012S018], the concentration for half-maximal inhibition (IC50) was 1 to 10 µM.

Consider `COc1cc2ncnc(N=S(C)(=O)c3ccc(P(=O)(O)O)cc3)c2cc1OC` (stereo not drawn) [SAPTI012S001], for which the IC50 fell in the range of 1 to 10 µM.

Turning to `COc1cccc2c(N=S(C)(=O)c3ccc(C(N)=O)cc3)ccnc12` (stereo not drawn) [SAPTI012S020], the IC50 is 1 to 10 µM.

`COc1cccc2c(N=S(C)(=O)c3cccc(N(C)C(N)=O)c3)ncnc12` (stereo not drawn) [SAPTI012S013]: the IC50 lay within 1 to 10 µM.

With `Cn1ccc2c(N=S(C)(=O)c3ccc(C(N)=O)cc3)ncnc21` (stereo not drawn) [SAPTI012S019], the IC50 fell in the range of 1 to 10 µM.

Still in this experiment, the particulars now being: Human ENPP-1 3 nM, 5 μM cGAMP, pH 7.4, 40 μM HSA, RT 3 hrs; read-out: IC50 values of compounds of the invention, <100 nM.
For `COc1cc2ncnc(N=S(C)(=O)c3cccc(C(=O)O)c3)c2cc1OC` (stereo not drawn) [SAPTI012S021], the IC50 was less than 0.1 µM.

In the case of `COc1cc2ncnc(N=S(C)(=O)c3ccc(S(C)(=N)=O)cc3)c2cc1OC` (stereo not drawn) [SAPTI012S008], the half-inhibitory concentration (IC50) is less than 0.1 µM.

On to `COc1cc2ncnc(N=S(C)(=O)c3ccc(CNC(N)=O)cc3)c2cc1OC` (stereo not drawn) [SAPTI012S015], for which the concentration for half-maximal inhibition (IC50) is less than 0.1 µM.

For the molecule `COc1cc2ncnc(N=S(C)(=O)c3cccc(CNC(N)=O)c3)c2cc1OC` (stereo not drawn) [SAPTI012S024], the IC50 is less than 0.1 µM.

Take `COc1cc2ncnc(N=S(C)(=O)c3ccc(NC(=O)Nc4ccccc4)cc3)c2cc1OC` (stereo not drawn) [SAPTI012S009]: the IC50 is less than 0.1 µM.

Consider `COc1cc2ncnc(N=S(=O)(c3cccc(NC(N)=O)c3)C3CCCC3)c2cc1OC` (stereo not drawn) [SAPTI012S030], for which the IC50 is less than 0.1 µM.

Consider `COc1cc2ncnc(N=S(C)(=O)c3ccc(B(O)O)cc3)c2cc1OC` (racemic) [SAPTI012S006], for which the IC50 is less than 0.1 µM.

Turning to `COc1cc2ncnc(N=S(C)(=O)c3cccc(NC(N)=O)c3)c2cc1OC` (stereo not drawn) [SAPTI012S011], the IC50 was less than 0.1 µM.

Take `COc1cc2ncnc(N=S(C)(=O)c3cccc4c(P(=O)(O)O)cccc34)c2cc1OC` (stereo not drawn) [SAPTI012S028]: the IC50 was less than 0.1 µM.

For the molecule `COc1cc2ncnc(N=S(C)(=O)c3ccc(CC(N)=O)cc3)c2cc1OC` (stereo not drawn) [SAPTI012S042], the IC50 is less than 0.1 µM.

Turning to `COc1cc2nccc(N=S(C)(=O)c3ccc(B(O)O)cc3)c2cc1OC` (stereo not drawn) [SAPTI012S036], the IC50 was less than 0.1 µM.

`COc1cc2ncnc(N=S(C)(=O)c3ccc(C(N)=O)cc3)c2cc1OC` (stereo not drawn) [SAPTI012S016]: the IC50 was less than 0.1 µM.

`COc1cc2ncnc(N=S(C)(=O)c3cccc(B(O)O)c3)c2cc1OC` (stereo not drawn) [SAPTI012S005]: the half-inhibitory concentration (IC50) is less than 0.1 µM.

On to `COc1nccc2c(N=S(C)(=O)c3ccc(B(O)O)cc3)ncnc12` (stereo not drawn) [SAPTI012S040], for which the IC50 was less than 0.1 µM.

As to `COc1cc2ncnc(N=S(=O)(c3ccc(P(=O)(O)O)cc3)C(C)C)c2cc1OC` (stereo not drawn) [SAPTI012S031], the IC50 is less than 0.1 µM.

On to `COc1cc2ncnc(N=S(C)(=O)c3cccc4c(NC(N)=O)cccc34)c2cc1OC` (stereo not drawn) [SAPTI012S029], for which the IC50 was less than 0.1 µM.

Staying with this experiment, now noted: Human ENPP-1 3 nM, 5 μM cGAMP, pH 7.4, 40 μM HSA, RT 3 hrs; read-out: IC50 values of compounds of the invention, >10 uM.
For `COc1cc2ncnc(N=S(C)(=O)c3cccc(CN)c3)c2cc1OC` (stereo not drawn) [SAPTI012S023], the IC50 was more than 10 µM.

As for `Cn1ccc2c(N=S(C)(=O)c3ccc(B(O)O)cc3)ncnc21` (stereo not drawn) [SAPTI012S037], the IC50 is more than 10 µM.

`COc1cc2ncnc(N=S(=O)(CCCP(=O)(O)O)c3ccccc3)c2cc1OC` (stereo not drawn) [SAPTI012S027]: the IC50 was more than 10 µM.

`COc1cc2ncnc(N=S(C)(=O)c3ccc(NS(N)(=O)=O)cc3)c2cc1OC` (stereo not drawn) [SAPTI012S003, N-{4-[N-(6,7-dimethoxyquinazoline-4-)-S-methanesulfonimidoyl]phenyl}sulfuric diamide]: the half-inhibitory concentration (IC50) was more than 10 µM.

For `COc1cc2ncnc(N=S3(=O)CCC(C)(C)c4cc(P(=O)(O)O)ccc43)c2cc1OC` (stereo not drawn) [SAPTI012S026], the IC50 was more than 10 µM.

As to `CS(=O)(=Nc1ncnc2ccccc12)c1ccc(B(O)O)cc1` (stereo not drawn) [SAPTI012S041], the IC50 was more than 10 µM.

Consider `COc1cccc2c(N=S(C)(=O)c3ccc(C(N)=O)cc3)ncnc12` (stereo not drawn) [SAPTI012S017], for which the IC50 is more than 10 µM.

`COc1cc2ncnc(N=S(=O)(c3cccc(NC(N)=O)c3)C(C)C)c2cc1OC` (stereo not drawn) [SAPTI012S033]: the IC50 was more than 10 µM.

For `CS(=O)(=Nc1ncnc2ccc(F)cc12)c1ccc(B(O)O)cc1` (stereo not drawn) [SAPTI012S038], the IC50 is more than 10 µM.

Staying with this experiment, now noted: racemate and enantiomers separated by chiral HPLC; Human ENPP-1 3 nM, 5 μM cGAMP, pH 7.4, 40 μM HSA; read-out: IC50 value range (enantiomers of SAPTI012S006).
For `COc1cc2ncnc(N=S(C)(=O)c3ccc(B(O)O)cc3)c2cc1OC` (racemic) [SAPTI012S006], the IC50 was less than 0.1 µM.

Consider `COc1cc2ncnc(N=S(C)(=O)c3ccc(B(O)O)cc3)c2cc1OC` (single isomer, unassigned) [SAPTI012S006-E1], for which the IC50 is more than 0.1 µM.

For `COc1cc2ncnc(N=S(C)(=O)c3ccc(B(O)O)cc3)c2cc1OC` (single isomer, unassigned) [SAPTI012S006-E2], the IC50 was less than 0.1 µM.
